Measured values reported in ChEMBL document CHEMBL1142268, “Histone deacetylase inhibitors: from bench to clinic” (J Med Chem, 2008).

Experiments:
MKN-45 = assay: Antiproliferative activity against human MKN45 cells; assay type: functional, cell-based
Histone deacetylase [1] = assay: Inhibition of HDAC from human K562 cells; assay type: cell-based
HT-1080 = assay: Inhibition of human HT1080 cells; assay type: functional, cell-based
HCT-116 = assay: Inhibition of human HCT116 cells; assay type: functional, cell-based
Histone deacetylase [2] = assay: Inhibition of human liver HDAC
Histone deacetylase [3] = assay: Inhibition of HDAC in human CEM cells; assay type: cell-based; details: ccrf-cem
CCRF-CEM = assay: Inhibition of human CEM cells assessed as viability; assay type: functional, cell-based
Histone deacetylase 1 [4] = biological target: T1, Histone deacetylase 1 (Homo sapiens, UniProt Q13547); assay: Inhibition of HDAC1 from human HeLa cells; assay type: cell-based
T1 sequence (Q13547 whole entry): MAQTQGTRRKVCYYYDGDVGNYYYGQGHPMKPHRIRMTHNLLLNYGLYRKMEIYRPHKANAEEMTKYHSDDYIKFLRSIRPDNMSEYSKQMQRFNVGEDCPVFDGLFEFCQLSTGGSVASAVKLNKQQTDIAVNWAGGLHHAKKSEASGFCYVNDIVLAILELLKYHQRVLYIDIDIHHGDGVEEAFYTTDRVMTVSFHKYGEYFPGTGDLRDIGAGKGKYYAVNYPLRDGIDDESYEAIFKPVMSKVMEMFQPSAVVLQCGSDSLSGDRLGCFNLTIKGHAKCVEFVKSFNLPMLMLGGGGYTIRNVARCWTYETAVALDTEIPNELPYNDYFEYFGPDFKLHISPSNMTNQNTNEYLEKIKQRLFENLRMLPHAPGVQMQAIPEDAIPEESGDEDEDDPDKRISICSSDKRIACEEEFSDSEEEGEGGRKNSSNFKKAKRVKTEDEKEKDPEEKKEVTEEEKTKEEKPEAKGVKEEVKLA

Histone deacetylase 1 [5] = biological target: T1, Histone deacetylase 1
Description: Inhibition of human HDAC1

Histone deacetylase 1 [6] = biological target: T1, Histone deacetylase 1; remark: listed apart in the source
MCF7 = assay: Inhibition of human MCF7 cells; assay type: functional, cell-based
SK-BR-3 = assay: Antiproliferative activity against human SKBR3 cells; assay type: functional, cell-based

O=C(NO)c1ccc(-c2ccn(CCCc3ccccc3)n2)s1
IC50 (MKN-45): 2190 nM

COc1ccc(-c2csc(CCCCCCC(=O)NO)n2)cc1
IC50 (Histone deacetylase [1]): 2.5 nM | IC50 (HT-1080): 3630 nM

Nc1ccccc1NC(=O)CCCCCCNC(=O)c1cccc(-c2ccccc2)c1
IC50 (HCT-116): 12000 nM

O=C(CCCCCCc1nc(-c2ccccc2)cs1)NO
IC50 (Histone deacetylase [1]): 19 nM | IC50 (HT-1080): 5070 nM

O=C(CCCCCCc1nc(-c2cccc(Br)c2)cs1)NO
IC50 (Histone deacetylase [1]): 5.8 nM | IC50 (HT-1080): 10100 nM

O=C(CCCCCCc1ncc(-c2ccc(Br)cc2)o1)NO
IC50 (Histone deacetylase [1]): 2.7 nM | IC50 (HT-1080): 7700 nM

O=C(CCCCCC[S+]([O-])c1ccc(Cl)cc1)NO (centres undefined)
IC50 (Histone deacetylase [2]): 380 nM | IC50 (Histone deacetylase [3]; read-out: IC50): 1600 nM | IC50 (CCRF-CEM): 12300 nM

COc1ccc(CNc2ccc(/C=C/C(=O)Nc3ccccc3N)cc2)cc1
IC50 (HCT-116): 37000 nM

CC(=O)CCCCC[C@H](NC1CCCCN1C)C(=O)Nc1cccc(-c2ccccc2)c1 (some centres undefined)
IC50 (Histone deacetylase 1 [4]): 500 nM | IC50 (Histone deacetylase 1 [5]): 79 nM

O=C(CCCCCSc1ccc(NS(=O)(=O)c2ccc(Cl)cc2)cc1)NO
IC50 (Histone deacetylase [2]): 110 nM | IC50 (Histone deacetylase [3]; read-out: IC50): 9400 nM | IC50 (CCRF-CEM): > 25000 nM

O=C(CCCCCCc1nc(-c2ccc(C(F)(F)F)cc2)cs1)NO
IC50 (Histone deacetylase [1]): 42 nM | IC50 (HT-1080): 2390 nM

COc1cc(NCc2ccc(/C=C/C(=O)Nc3ccccc3N)cn2)cc(OC)c1OC
IC50 (HCT-116): 3000 nM

CC(=O)CCCCC[C@H](NC(=O)CCN1CCCCC1)C(=O)NCCc1c(-c2ccccc2)[nH]c2ccccc12
IC50 (Histone deacetylase 1 [4]): < 390 nM | IC50 (Histone deacetylase 1 [5]): 190 nM

O=C(CCCCCCc1cnc(-c2ccc(-c3ccccc3)cc2)o1)NO
IC50 (Histone deacetylase [1]): 12 nM | IC50 (HT-1080): 15300 nM

COc1ccc(-c2ccnc(NCc3ccc(C(=O)Nc4ccccc4N)cc3)n2)cn1
IC50 (HCT-116): 100 nM | IC50 (Histone deacetylase 1 [6]): 600 nM

CC(=O)CCCCC[C@H](NC(=O)C1CCCN(C)C1)C(=O)NCCc1c(-c2ccccc2)[nH]c2ccccc12 (some centres undefined)
IC50 (Histone deacetylase 1 [4]): 2000 nM

O=C(NO)c1ccc(-c2ccn(Cc3ccccc3)n2)s1
IC50 (MKN-45): 4540 nM

O=C(NO)c1ccc(-c2ccn(CCNCc3ccc4[nH]ccc4c3)n2)s1
IC50 (MKN-45): 280 nM

O=C(CCCCC[S+]([O-])c1ccccc1)NO (centres undefined)
IC50 (Histone deacetylase [2]): 60 nM | IC50 (Histone deacetylase [3]): 7400 nM | IC50 (CCRF-CEM): > 25000 nM

CC(=O)CCCCC[C@H](NC(C)=O)C(=O)NCCc1c(-c2ccccc2)[nH]c2ccccc12
IC50 (Histone deacetylase 1 [4]): 7600 nM

O=C(CCCCCCc1nc(-c2ccc3ccccc3c2)cs1)NO
IC50 (Histone deacetylase [1]): 4.3 nM | IC50 (HT-1080): 2390 nM

O=C(CCCCCCc1ncc(-c2ccc(-c3ccc(Cl)cc3)cc2)o1)NO
IC50 (Histone deacetylase [1]): 6.8 nM | IC50 (HT-1080): 660 nM

O=C(NO)c1ccc(-c2ccn(CCOc3ccccc3)n2)s1
IC50 (MKN-45): 1500 nM

O=C(CCCCC[S+]([O-])c1ccc(Cl)cc1)NO (centres undefined)
IC50 (CCRF-CEM): 2600 nM

O=C(NO)c1ccc(-c2ccn(CCNCc3ccc(-c4ccccn4)cc3)n2)s1
IC50 (MKN-45): 120 nM

O=C(Cc1ccc(-c2csc(NC(=O)Cc3ccccc3)n2)s1)NO
IC50 (Histone deacetylase 1 [6]): > 100 nM

COc1ccc(-c2cnc(CCCCCCC(=O)NO)o2)cc1
IC50 (Histone deacetylase [1]): 2.1 nM | IC50 (HT-1080): 310 nM

CC(=O)CCCCC[C@H](NC(=O)C1CCN(C)C1)C(=O)NCCc1c(-c2ccccc2)[nH]c2ccccc12 (some centres undefined)
IC50 (Histone deacetylase 1 [4]): 2000 nM

COc1ccc(CNc2ccc(/C=C/C(=O)Nc3ccccc3N)cn2)cc1
IC50 (HCT-116): 3000 nM

CC(=O)CCCCC[C@H](Nc1cncs1)C(=O)Nc1cccc(-c2ccccc2)c1
IC50 (Histone deacetylase 1 [4]): 720 nM | IC50 (Histone deacetylase 1 [5]): 55 nM

O=C(NO)c1ccc(-c2ccn(CCOCc3ccccc3)n2)s1
IC50 (MKN-45): 750 nM

COc1cc(NC/C=C/c2ccc(C(=O)Nc3ccccc3N)cc2)cc(OC)c1OC
IC50 (HCT-116): 100 nM

COc1ccc2[nH]c(C)c(CN[C@@H](CCCCCC(C)=O)C(=O)Nc3cccc(-c4ccccc4)c3)c2c1
IC50 (Histone deacetylase 1 [4]): 230 nM | IC50 (Histone deacetylase 1 [5]): 18 nM

O=C(Cn1ccc(-c2ccc(C(=O)NO)s2)n1)Nc1cccc2cccnc12
IC50 (MKN-45): 200 nM

CC(=O)CCCCC[C@H](NC(=O)c1cncs1)C(=O)NCCc1c(-c2ccccc2)[nH]c2ccccc12
IC50 (Histone deacetylase 1 [4]): 3000 nM

Nc1ccccc1NC(=O)c1ccc(CSc2nc3ccccc3[nH]2)cc1
IC50 (HCT-116): 320 nM

COc1ccccc1NC(=O)Cn1ccc(-c2ccc(C(=O)NO)s2)n1
IC50 (MKN-45): 230 nM

O=C(Nc1ccc2cc(C(=O)NO)sc2c1)c1ccc2ccccc2c1
IC50 (Histone deacetylase 1 [5]): 79 nM

O=C(CCCCCCc1ncc(-c2ccccc2)o1)NO
IC50 (Histone deacetylase [1]): 9.8 nM | IC50 (HT-1080): 8410 nM

CC(=O)CCCCC[C@H](NC(=O)c1cnns1)C(=O)NCCc1c(-c2ccccc2)[nH]c2ccccc12
IC50 (Histone deacetylase 1 [4]): 3400 nM | IC50 (Histone deacetylase 1 [5]): 480 nM

O=C(CCCCCS(=O)(=O)c1ccccc1)NO
IC50 (Histone deacetylase [2]): 40 nM | IC50 (Histone deacetylase [3]; read-out: IC50): 15500 nM | IC50 (CCRF-CEM): > 25000 nM

COc1ccc(NCc2ccc(/C=C/C(=O)Nc3ccccc3N)cc2)cc1
IC50 (HCT-116): 12000 nM

O=C(NO)c1cnc(N2CCC(NS(=O)(=O)c3ccc4ccccc4c3)CC2)s1
GI50 (MCF7): 700 nM

O=C(NO)c1ccc(-c2ccn(CCNCc3ccccc3)n2)s1
IC50 (MKN-45): 1800 nM

COc1ccc(CNCCn2ccc(-c3ccc(C(=O)NO)s3)n2)cc1OC
IC50 (MKN-45): 4500 nM

Nc1ccccc1NC(=O)c1ccc(/C=C/CNc2nccc(-c3cccnc3)n2)cc1
IC50 (HCT-116): 200 nM

O=C(NO)c1cc2cc(NC(=O)c3cccc4ccccc34)ccc2s1
IC50 (Histone deacetylase 1 [5]): 1070 nM

Nc1ccccc1NC(=O)/C=C/c1ccc(NCc2ccccc2)nc1
IC50 (HCT-116): 1000 nM

COc1ccc(CNc2ccc(C(=O)Nc3ccccc3N)cc2)cc1OC
IC50 (HCT-116): 600 nM

O=C(CCCCCSc1ccc(Cl)cc1)NO
IC50 (Histone deacetylase [2]): 260 nM | IC50 (Histone deacetylase [3]): > 25000 nM | IC50 (CCRF-CEM): > 25000 nM

C[C@@H]1C(=O)N[C@H](C)C(=O)N[C@H](C)C(=O)N[C@H](Cc2ccccc2)C(=O)N[C@@H]1C/C=C\CCC(N)=O [AZUMAMIDE D]
IC50 (Histone deacetylase [1]): 1300 nM

COc1ccc(CCNc2ccc(C(=O)Nc3ccccc3N)cn2)cc1
IC50 (HCT-116): 800 nM

COc1cccc(OC)c1-c1csc(CCCCCCC(=O)NO)n1
IC50 (Histone deacetylase [1]): 4.3 nM | IC50 (HT-1080): 2000 nM

CN(C)C(=O)C(=O)CCCCCCOc1ccc(-c2ccccc2)cc1
IC50 (Histone deacetylase [1]): > 5000 nM

CC(=O)CCCCC[C@H](NC(=O)C1CCCCN1C)C(=O)NCCc1c(-c2ccccc2)[nH]c2ccccc12 (some centres undefined)
IC50 (Histone deacetylase 1 [4]): 2500 nM

O=C(NO)c1ccc(-c2ccn(CCNCc3ccc(-n4ccnc4)cc3)n2)s1
IC50 (MKN-45): 560 nM

COc1ccc2[nH]c(C)c(CN[C@@H](CCCCCC(C)=O)C(=O)Nc3nc(-c4ccccc4)cs3)c2c1
IC50 (Histone deacetylase 1 [4]): < 390 nM | IC50 (Histone deacetylase 1 [5]): 25 nM

Nc1ccccc1NC(=O)c1ccc(Cn2c(=O)[nH]c3ccccc3c2=O)cc1
IC50 (HCT-116): 600 nM | IC50 (Histone deacetylase 1 [6]): 2000 nM

Nc1ccccc1NC(=O)c1ccc(/C=C/C(=O)NCc2cccnc2)cc1
IC50 (HCT-116): 70 nM

Nc1ccccc1NC(=O)c1ccc(/C=C/C(=O)NCCc2c[nH]c3ccccc23)cc1
IC50 (HCT-116): 300 nM

COc1ccc(CNCCn2ccc(-c3ccc(C(=O)NO)s3)n2)cc1
IC50 (MKN-45): 550 nM

COc1ccc(CNc2ccc(C(=O)Nc3ccccc3N)cn2)cc1
IC50 (HCT-116): 500 nM

Nc1ccccc1NC(=O)CCCCCCNC(=O)c1ccc(-c2ccccc2)cc1
IC50 (HCT-116): 7000 nM

O=C(CCCCCCc1nc(-c2ccc(-c3ccccc3)cc2)cs1)NO
IC50 (Histone deacetylase [1]): 11 nM | IC50 (HT-1080): 1320 nM

O=C(CCCCCCc1cnc(-c2ccc(Br)cc2)o1)NO
IC50 (Histone deacetylase [1]): 4.4 nM | IC50 (HT-1080): 27000 nM

COC(=O)C(=O)CCCCCCCOc1ccc(-c2ccccc2)cc1
IC50 (Histone deacetylase [1]): 109 nM

O=C(CCCCCCC(=O)Nc1ccccc1)NO [VORINOSTAT]
IC50 (SK-BR-3): 800 nM

O=C(CCCCCSc1ccccc1)NO
IC50 (Histone deacetylase [2]): 120 nM | IC50 (Histone deacetylase [3]; read-out: IC50): 9400 nM | IC50 (CCRF-CEM): > 25000 nM

O=C(CCCCCCc1cnc(-c2ccc(OC(F)(F)F)cc2)o1)NO
IC50 (Histone deacetylase [1]): 89 nM | IC50 (HT-1080): 5140 nM

CN(C)CCNC(=O)C(=O)CCCCCCOc1ccc(-c2ccccc2)cc1
IC50 (Histone deacetylase [1]): > 50000 nM

COC(=O)C(=O)CCCCCOc1ccc(-c2ccccc2)cc1
IC50 (Histone deacetylase [1]): 82 nM

O=C(CCCCCCc1nc(-c2ccc(Br)cc2)cs1)NO
IC50 (Histone deacetylase [1]): 8.5 nM | IC50 (HT-1080): 5680 nM

COc1cc(CNc2ccc(/C=C/C(=O)Nc3ccccc3N)cn2)cc(OC)c1OC
IC50 (HCT-116): 2000 nM

O=C(CCCCCCc1cnc(-c2ccc(F)cc2)o1)NO
IC50 (Histone deacetylase [1]): 23 nM

O=C(Cn1ccc(-c2ccc(C(=O)NO)s2)n1)Nc1ccccc1
IC50 (MKN-45): 840 nM

O=C(NO)c1ccc(-c2ccn(CCc3ccccc3)n2)s1
IC50 (MKN-45): 2910 nM

Cn1nc(C(F)(F)F)cc1-c1ccc(C(=O)NO)s1
IC50 (MKN-45): 31500 nM

Cn1c(CNCCn2ccc(-c3ccc(C(=O)NO)s3)n2)cc2ccccc21
IC50 (MKN-45): 370 nM

C1=C\CCCCCC[n+]2cccc(c2)CCCCCCCCCCCC[n+]2cccc(c2)CCCCCC/1
IC50 (Histone deacetylase [1]): 27000 nM
